# Patent US20160008490A1, “METAL CHELATE COMPOUNDS FOR BINDING TO THE PLATELET SPECIFIC GLYCOPROTEIN IIB/IIIA” (BAYER PHARMA AKTIENGESELLSCHAFT, priority 2013, published 2016)
# Assays:
# [1] = Relaxivity measurements at 1.41 T in water and plasma; assay type: physicochemical; details: relaxivity normalized to Gd, 37° C.
# Method: Relaxivity measurements at 1.41 T were performed using a MiniSpec mq60 spectrometer (Bruker Analytik, Karlsruhe) operating at a resonance frequency of 60 MHz and a temperature of 37° C. The T1 relaxation times were determined using the standard inversion recovery method. The T2 measurements were done by using the Carr-Purcell-Meiboom-Gill (CPMG) pulse sequence. All measurements were done at concentrations between 0.05 mM and 1 mM of Gd in water and plasma.
# The relaxivities ri (where i=1, 2) were calculated on the basis of the measured relaxation rates Ri in water and plasma:
# where Ri(0) represent the relaxation rate of the respective solvent and CGd the concentration of the compound normalized to the Gadolium.
# [2] = target: T1, human GP IIb/IIIa receptor (Homo sapiens, UniProt P05106+P08514); experiment: GPIIb/IIIa affinity assay (displacement of tritiated reference compound from immobilized receptor); assay type: binding; details: purified human GPIIb/IIIa, 60 nM 3H-labeled reference compound, 1 hour at room temperature
# T1 construct: human GPIIb/IIIa purified from human platelets was immobilized on a 96-well solid plate; purchased Enzyme Research Laboratories Inc. (South Bend, Ind.); host or cells: human platelets (natural source, detergent-solubilised)
# T1 sequence (P08514 32-887 limits assumed): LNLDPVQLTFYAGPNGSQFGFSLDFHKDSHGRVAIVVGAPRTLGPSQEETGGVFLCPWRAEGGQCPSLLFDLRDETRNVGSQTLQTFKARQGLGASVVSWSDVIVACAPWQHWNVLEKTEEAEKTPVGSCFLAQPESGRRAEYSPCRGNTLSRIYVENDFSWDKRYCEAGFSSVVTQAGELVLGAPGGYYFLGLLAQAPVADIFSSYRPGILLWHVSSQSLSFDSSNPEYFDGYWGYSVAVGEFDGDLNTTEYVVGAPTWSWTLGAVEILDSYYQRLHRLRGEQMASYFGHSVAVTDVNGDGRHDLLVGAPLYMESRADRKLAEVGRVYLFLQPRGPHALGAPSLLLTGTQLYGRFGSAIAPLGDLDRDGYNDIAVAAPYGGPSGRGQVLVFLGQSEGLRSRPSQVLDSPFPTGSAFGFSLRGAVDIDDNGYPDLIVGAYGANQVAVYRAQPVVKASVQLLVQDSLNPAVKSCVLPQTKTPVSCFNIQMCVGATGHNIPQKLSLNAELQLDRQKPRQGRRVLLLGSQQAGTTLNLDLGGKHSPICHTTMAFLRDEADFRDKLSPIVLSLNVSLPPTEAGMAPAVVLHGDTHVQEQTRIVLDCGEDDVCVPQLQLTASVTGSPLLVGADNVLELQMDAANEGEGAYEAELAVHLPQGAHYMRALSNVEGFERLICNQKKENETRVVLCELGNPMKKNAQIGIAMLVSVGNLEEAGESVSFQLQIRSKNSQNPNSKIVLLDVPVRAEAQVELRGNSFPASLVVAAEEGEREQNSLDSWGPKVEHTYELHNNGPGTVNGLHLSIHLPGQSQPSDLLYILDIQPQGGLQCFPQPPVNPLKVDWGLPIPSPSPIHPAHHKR
# T1 sequence (P08514 891-1039 partner limits assumed): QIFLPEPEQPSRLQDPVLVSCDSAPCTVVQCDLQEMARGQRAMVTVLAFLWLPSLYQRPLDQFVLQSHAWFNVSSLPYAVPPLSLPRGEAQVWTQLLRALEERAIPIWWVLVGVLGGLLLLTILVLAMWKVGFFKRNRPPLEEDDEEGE
# T1 sequence (P05106 27-788): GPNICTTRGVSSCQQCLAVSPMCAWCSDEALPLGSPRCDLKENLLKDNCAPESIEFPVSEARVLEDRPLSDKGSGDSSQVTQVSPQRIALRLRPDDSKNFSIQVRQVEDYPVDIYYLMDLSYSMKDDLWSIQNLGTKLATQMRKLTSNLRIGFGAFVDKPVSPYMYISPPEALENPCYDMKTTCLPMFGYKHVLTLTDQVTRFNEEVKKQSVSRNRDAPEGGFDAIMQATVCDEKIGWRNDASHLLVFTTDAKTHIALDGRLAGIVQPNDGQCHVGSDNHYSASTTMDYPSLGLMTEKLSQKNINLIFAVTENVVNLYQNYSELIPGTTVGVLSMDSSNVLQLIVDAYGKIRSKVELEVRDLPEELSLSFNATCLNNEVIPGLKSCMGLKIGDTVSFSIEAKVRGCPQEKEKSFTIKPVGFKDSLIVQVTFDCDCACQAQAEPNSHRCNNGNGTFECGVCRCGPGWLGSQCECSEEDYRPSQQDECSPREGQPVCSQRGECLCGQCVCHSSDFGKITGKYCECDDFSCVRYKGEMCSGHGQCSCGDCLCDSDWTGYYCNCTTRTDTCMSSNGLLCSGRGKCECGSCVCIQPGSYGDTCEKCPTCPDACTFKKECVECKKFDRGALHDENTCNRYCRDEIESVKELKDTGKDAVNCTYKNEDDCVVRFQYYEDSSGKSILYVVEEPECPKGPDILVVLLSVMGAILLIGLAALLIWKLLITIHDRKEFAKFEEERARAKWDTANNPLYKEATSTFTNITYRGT
# Method: Affinity assay: In the first step human GPIIb/IIIa purified from human platelets was immobilized on a 96-well solid plate. After 48 hours the plates were washed and the unspecific binding sites were blocked with Roti®-Block. 2. In the next step, the plates were simultaneously incubated with a tritium labeled known GPIIb/IIIa binder (^3H) mixed with increasing concentrations of the novel compounds (inhibitor). The higher the affinity of the inhibitor, the lower the bound fraction of the tritiated known GPIIb/IIIa binder (^3H) was. The fraction of tritiated compound (^3H), which is not displaced by inhibitor, was measured in a microplate scintillation counter.
# Purified human glycoprotein IIb/IIIa (20 mM Tris-HCl, 0.1 M NaCl, 0.1% Triton X-100, 1 mM CaCl2, 0.05% NaN3, 50% Glycerol, pH 7.4) was purchased from Enzyme Research Laboratories Inc. (South Bend, Ind.). The GPIIb/IIIa receptor was diluted in phosphate-buffered saline (Dulbecco's Phosphate Buffered Saline (D-PBS (+)) with calcium and magnesium, GIBCO®, Invitrogen) with 0.01% bovine serum albumin (albumin from bovine serum—lyophilized powder, 96%, Sigma).
# The GPIIb/IIIa receptor was immobilized 48 hours at least (100 μL per well, 48 to maximum 96 hours) on a 96-well solid plate (Immuno Plate MaxiSorp™, Nunc, Roskilde, Denmark) at 277 K to 280 K and at a concentration of 0.1 μg per well to 1 μg per well. As negative control one row of the plate (n=8) was incubated just with 2% bovine serum albumin (200 μL per well, albumin from bovine serum—lyophilized powder, ≧96%, Sigma, diluted in D-PBS (+)).
# After washing three times with the wash buffer (230 μL per well, Dulbecco's Phosphate Buffered Saline (D-PBS (−)) contains no calcium or magnesium, GIBCO®, Invitrogen) residual exposed plastic and unspecific binding sites were blocked by incubating the plate with a special blocking solution (200 μL per well, Roti®-Block, Car Roth GmbH Co KG, Karlsruhe) containing 2% bovine serum albumin (Albumin from bovine serum—lyophilized powder, ≧96%, Sigma) 1 hour at room temperature.
# After washing three times with the wash buffer 50 μL of tritiated reference compound (60 nM, ^3H-labeled compound) and 50 μL of novel compound (inhibitor) were simultaneously added to each well and incubated for 1 hour at room temperature. Several concentrations of each novel inhibitor (0.1, 1, 2, 5, 10, 20 50, 100, 200, 500, 1000, 2000, 5000, 10000 and 20000 nM) were investigated. At each concentration of inhibitor a fourfold determination was performed.
# The maximum value of tritiated reference compound was determined without addition of inhibitor (n=8). To exclude unspecific binding of ^3H— reference compound wells without glycoprotein receptors were used as negative controls (n=12, identically treated just without GPIIb/IIIa receptors).
# After one hour the plate was washed three times with phosphate-buffered saline (200 μL per well, Dulbecco's Phosphate Buffered Saline (D-PBS (+)), GIBCO®, Invitrogen). Following 140 μL of liquid scintillation cocktail (MicroScint™ 40 aqueous, Perkin Elmer) was added to each well. After 15 min at room temperature the plates were measured at the microplate scintillation counter (TopCount NXT v2.13, Perkin Elmer, Packard Instrument Company).
# In the first step human glycoprotein IIb/IIIa, which is purified from human platelets, was immobilized on a 96-well solid plate. After 48 hours at least the plates were washed and the unspecific binding sites were blocked with Roti®-Block. In the next step, the plates were simultaneously incubated with a tritium labeled reference compound and the novel small molecule compound (inhibitor). The higher the affinity of the inhibitor, the smaller is the bound fraction of reference compound. The fraction of tritiated reference compound, which is not displaced by inhibitor, was measured at a microplate scintillation counter. The higher the affinity of the inhibitor, the smaller is the bound fraction of tritium-labeled reference compound. […]
# [3] = tested on: human activated platelets; experiment: Binding of investigated compounds to human activated platelets (ICP-MS of Gd in pellet and supernatant); assay type: cell-based; details: incubation concentration 1 μM molecule; for Concentration within platelet pellet: ADP-activated platelet-rich plasma, 20 minutes, pellet washed
# Method: For each experiment fresh blood was taken from a volunteer using 10 mL citrate-tubes (Sarstedt S-Monovette 02.1067.001, 10 mL, Citrate 3.13%). The 10 mL citrate-tubes were carefully inverted 10 times to mix blood and anticoagulant. The tubes were stored in an incubator at a temperature of 37° C. until centrifugation (Heraeus miniTherm CTT with integrated rotation- and turning device, turning speed: 19 rotations per minute, Heraeus Instruments GmbH, Hanau/Germany).
# For plasma preparation tube centrifugation was carried out for 15 minutes at 1811 g at room temperature (Eppendorf, Centrifuge 5810R). Blood was centrifuged 15 minutes at 201 g at room temperature to produce platelet-rich plasma. The tubes were stored for 30 min at room temperature to get a better separation. The separated platelet-rich plasma was finally centrifuged for further 3 min at 453 g to remove the remaining erythrocytes. The platelet-rich plasma was activated using a final concentration of 5 μM Adenosindiphosphate (ADP, Sigma). The activated platelet-rich plasma was incubated 20 minutes with different concentrations of gadolinium-labeled compound and subsequently was centrifuged 3 minutes at 1360 g. 20 μL of incubation solution was taken to determine the concentration (n=3). […] The gadolinium concentration of supernatant and pellet was determined using an inductively coupled plasma mass spectrometry (ICP-MS Agilent 7500a).
# The results for incubation concentration of 1 μM gadolinium-labeled compound are summarized in table 3 (in comparison to Gadovist® standard dose: 100 μmol Gd/kg body weight).
Molecule,r1 plasma [1] [L/mmol/s],r1 water [1] [L/mmol/s],IC50 [2] [nM],Concentration within platelet pellet [3] [μM Gd],pellet/supernatant ([3]; ratio of Gd concentration)
"CC(C(=O)NCC(=O)NCCCCc1cc(C#Cc2cncc([C@H](CC(=O)O)NC(=O)[C@@H]3CCCN(C(=O)CCC4CCNCC4)C3)c2)cc(CCCCNC(=O)CNC(=O)C(C)N2CCN(CC(=O)O)CCN(CC(=O)O)CCN(CC(=O)O)CC2)c1)N1CCN(CC(=O)O)CCN(CC(=O)O)CCN(CC(=O)O)CC1 (stereo partly drawn) [Example 6, Digadolinium 2,2′,2″,2′″,2″″,2′″″-({5-[(5-{(1S)-2-carboxy-1-[({(3R)-1-[3-(piperidin-4-yl)-propanoyl]piperidin-3-yl}carbonyl)amino]ethyl}pyridin-3-yl)ethynyl]-1,3-phenylene}-bis[butane-4,1-diylimino(2-oxoethane-2,1-diyl)imino(1-oxopropane-1,2-diyl)-1,4,7,10-tetraazacyclododecane-10,1,4,7-tetrayl])hexaacetate]",10.3,8.5,103,6.8 ± 0.7,
"Gadolinium 2,2′,2″-{10-[(2S)-1-({2-[(6-(3-[(5-{(1S)-2-carboxy-1-[({(3R)-1-[3-(piperidin-4- yl)propanoyl]piperidin-3-yl}carbonyl)amino]ethyl}pyridin-3-yl)ethynyl]phenyl}butyl)-amino]-2-oxoethyl)amino)-1-oxopropan-2-yl]-1,4,7,10-tetraazacyclododecane-1,4,7-triyl}triacetate [Example 5]",9.9,8.0,25,3.9 ± 0.4,123 ± 16 (n = 3)
